Data as given in patent US20200325239A1, “Modulation of Aminopeptidase N/CD13 and Rheumatoid Arthritis” (THE REGENTS OF THE UNIVERSITY OF MICHIGAN, priority 2016, published 2020).

Legend:
Assay type in all cases: cell-based, human
RA FLS [1] = assay: FLS scratch-wound migration assay (relative wound density); settings: antibodies 25 or 50 ng/ml; actinonin 10 μM, bestatin 50 μM; primarily from 36 hours to 72 hours
Procedure: (§1) FIG. 5. […] FLS were seeded on 96-well plates overnight. An Essen Incucyte system was used for both growth (A) and migration (B) assays. Growth was calculated as the difference in percent confluence from time 0. Migration was measured in a scratch-wound assay using relative wound density. All data are expressed as a ratio to untreated FLS of the same cell line. mean±SEM n≥4 (*p≤0.05).
RA FLS were seeded on Essen Image Lock 96-well plates (Essen Bioscience, Ann Arbor, Mich.) overnight at either 3,000 cells/well for growth or 30,000 cells/well for migration. For growth, the 20% FBS CMRL media was removed and cells were washed 1× with PBS. 100 μl of medium alone (control) or medium containing anti-CD3 (25 or 50 ng/ml, OKT3, used as a non-reactive isotype control antibody in this experiment), anti-CD13 1D7 or WM15 (Biolegend, San Diego, Calif.) (25 or 50 ng/ml), or CD13 chemical inhibitors actinonin (Sigma-Aldrich, St. Louis, Mo.) or bestatin (Sigma-Aldrich, St. Louis, Mo.) (10 μM and 50 μM, respectively) was added to the wells. Images and confluence data were collected using an Essen IncuCyte (Essen Bioscience, Ann Arbor, Mich.). For the scratch-wound migration assay, wounds were made via the Essen scratch-wound tool in the seeded 96-well plate. […] Data were collected and the confluence or relative wound density calculated by the Essen IncuCyte.

RA FLS [2] = assay: FLS growth assay (Essen IncuCyte, percent confluence); settings: antibodies 25 or 50 ng/ml, actinonin 10 μM, bestatin 50 μM, primarily between 24 hours and 120 hours
Procedure: as §1
RA FLS were seeded on Essen Image Lock 96-well plates (Essen Bioscience, Ann Arbor, Mich.) overnight at either 3,000 cells/well for growth or 30,000 cells/well for migration. For growth, the 20% FBS CMRL media was removed and cells were washed 1× with PBS. 100 μl of medium alone (control) or medium containing anti-CD3 (25 or 50 ng/ml, OKT3, used as a non-reactive isotype control antibody in this experiment), anti-CD13 1D7 or WM15 (Biolegend, San Diego, Calif.) (25 or 50 ng/ml), or CD13 chemical inhibitors actinonin (Sigma-Aldrich, St. Louis, Mo.) or bestatin (Sigma-Aldrich, St. Louis, Mo.) (10 μM and 50 μM, respectively) was added to the wells. Images and confluence data were collected using an Essen IncuCyte (Essen Bioscience, Ann Arbor, Mich.). For the scratch-wound migration assay, wounds were made via the Essen scratch-wound tool in the seeded 96-well plate. Plates were then washed 2× with PBS and medium was added similar to the growth plates. Data were collected and the confluence or relative wound density calculated by the Essen IncuCyte.

RA FLS [3] = assay: CD13 shedding from FLS cultures with protease inhibitors (CD13 ELISA of supernatant and cell lysate); settings: 48 hours
Procedure: Fibroblast-like synoviocytes (FLS) were cultured from human synovial tissue obtained at arthroplasty or synovectomy from RA joints by digestion with 1% collagenase and separation through a 7004 cell strainer (16). […] FLS were maintained in Connaught Medical Research Laboratory (CARL) medium (20% fetal bovine serum (FBS), 2 mM L-glutamine, and 1% penicillin/streptomycin), and were used between passages 4 and 10. To avoid the confounding effect of serum CD13, cultures were moved to serum-free Dulbecco's Modified Eagle's medium/F-12 with Peprogrow serum replacement (Peprotech, Rocky Hill, N.J.) before harvesting. Some cultures were treated with protease inhibitors for 48 hours in serum-free medium: pepstatin A (Sigma-Aldrich, St. Louis, Mo.), aprotinin (Sigma-Aldrich, St. Louis, Mo.), leupeptin (Sigma-Aldrich, St. Louis, Mo.), GM6001 InSolution (EMD Millipore, Darmstadt, Germany), or E-64 (Thermo Scientific, Waltham, Mass.).
Cells were lysed in cell lysis buffer (10% NP-40, 10% PMSF, 1% Iodoacetamide, and 0.1% E-64 in TSA) for one hour on ice and spun to remove debris. FLS culture supernatants were concentrated by centrifugation through an Amicon Ultracel 30K filter (EMD Millipore, Darmstadt, Germany).
High-binding ELISA plates were coated with the anti-CD13 monoclonal antibody WM15 (Biolegend, San Diego, Calif.) in 0.1M carbonate buffer pH 9.5 overnight, and then blocked with 1× Animal Free Block (Vector Laboratories, Burlingame, Calif.) overnight. Samples were then applied to the plates either whole or diluted in block with 10 mM EDTA. A standard curve was prepared using recombinant human CD13 (R&D Systems, Minneapolis, Minn.) in block with 10 mM EDTA. 1D7 (i.e., 591.1D7.34, University of Michigan Hybridoma Core), an anti-CD13 monoclonal antibody that was recently described (10), was biotinylated (Biotin-XX Microscale Protein Labeling Kit, Life Technologies, Carlsbad, Calif.) and applied overnight (19). Streptavidin-HRP (Biolegend, San Diego, Calif.) was then added. Between steps, plates were washed with PBS plus 0.05% Tween. The plates were visualized with TMB substrate (BD Biosciences, San Jose, Calif.), stopped with 2M H2SO4, and analyzed on a colorimetric plate reader.
To test this mechanism, various protease inhibitors were added to FLS cultures, including: pepstatin A (aspartic), aprotinin (serine), leupeptin (serine/cysteine), GM6001 (metalloproteinase), and E-64 (cysteine). […] All inhibitors were used at established working concentrations.

FLS = assay: CD13 release and cellular CD13 after siRNA knockdown with or without GM6001 (CD13 ELISA); settings: 25 μM GM6001, 48 hours
Procedure: FLS were grown to confluence, then transfected with siRNA using an Amaxa nucleofector kit. Cells were grown to 75% confluence, then switched to serum-free growth media (Peprogrow) supplemented with 1 ng/ml IL-1 and 10 ng/ml TNFα for 48 hours with or without 25 μM GM6001.
High-binding ELISA plates were coated with the anti-CD13 monoclonal antibody WM15 (Biolegend, San Diego, Calif.) in 0.1M carbonate buffer pH 9.5 overnight, and then blocked with 1× Animal Free Block (Vector Laboratories, Burlingame, Calif.) overnight. Samples were then applied to the plates either whole or diluted in block with 10 mM EDTA. A standard curve was prepared using recombinant human CD13 (R&D Systems, Minneapolis, Minn.) in block with 10 mM EDTA. […] The plates were visualized with TMB substrate (BD Biosciences, San Jose, Calif.), stopped with 2M H2SO4, and analyzed on a colorimetric plate reader.
FLS were transfected by electroporation using an Amaxa Nucleofector and the nucleofector kit for dermal fibroblasts (NHDF, Lonza, Basel, Switzerland). […] Transfection of GFP control plasmid was measured by fluorescent microscopy (EVOSfl, AMG, Mill Creek, Wash.) and flow cytometry (BD Biosciences FACSCalibur, San Jose, Calif.). Knockdown efficiency was measured by qRT-PCR of MMP14 mRNA at the time of harvest for CD13 measurements. […]

CD13 mRNA = assay: Regulation of CD13 mRNA in RA FLS by cytokines (qRT-PCR); settings: time course 0 to 72 hours; for CD13 mRNA in RA FLS, ratio to untreated FLS (in words): IFNγ 1000 U/ml, TNFα 10 ng/ml, IL-17 10 ng/ml
Procedure: FIG. 4. […] FLS were stimulated over a time course of 0-72 hours with IFNγ (1000 U/ml), TNFα (10 ng/ml), or IL-17 (10 ng/ml). Cells were harvested and processed for either mRNA (A), surface expression (B), total cell lysate CD13 (C), or total CD13 in supernatant (D). mRNA was measured by qRT-PCR. CD13 was measured on the surface with anti-CD13 (1D7) and flow cytometry. Cell lysate and supernatant CD13 concentrations were measured by CD13 ELISA. Gating was done to isolate the major cell population and exclude debris and dead cells. Data is expressed as a ratio to unstimulated FLS at the same time point in either ΔΔCt normalized to GAPD (mRNA), mean fluorescent intensity corrected for background florescence with MsIg staining (surface), or CD13 concentration in lysate or supernatant. A n=3 B-D n=1 *p≤0.05.
All procedures involving specimens obtained from human subjects were performed under a protocol approved by the University of Michigan Institutional Review Board. Fibroblast-like synoviocytes (FLS) were cultured from human synovial tissue obtained at arthroplasty or synovectomy from RA joints by digestion with 1% collagenase and separation through a […] (16). FLS were uniformly positive for the FLS marker Cadherin-11. The diagnosis of RA required at least four of the seven 1987 American College of Rheumatology criteria (17). FLS were maintained in Connaught Medical Research Laboratory ([…]) medium (20% fetal bovine serum (FBS), 2 mM L-glutamine, and 1% penicillin/streptomycin), and were used between passages 4 and 10. To avoid the confounding effect of serum CD13, cultures were moved to serum-free Dulbecco's Modified Eagle's medium/F-12 with Peprogrow serum replacement (Peprotech, Rocky Hill, N.J.) before harvesting. Some cultures were treated with protease inhibitors for 48 hours in serum-free medium: pepstatin A (Sigma-Aldrich, St. Louis, Mo.), aprotinin (Sigma-Aldrich, St. Louis, Mo.), leupeptin (Sigma-Aldrich, St. Louis, Mo.), GM6001 InSolution (EMD Millipore, Darmstadt, Germany), or E-64 (Thermo Scientific, Waltham, Mass.). Other cultures were treated with cytokines: recombinant human interferon-γ (rhIFNγ, […]), recombinant human tumor necrosis factor-α (rhTNFα, 10 ng/ml), or recombinant human interleukin-17 (rhIL-17,10 ng/ml) (Peprotech, Rocky Hill, N.J.) for 0, 0.5, 1, 2, 6, 8, 12, 24, 48, or 72 hours in serum-free medium.
mRNA was isolated from FLS (3 wells of a 6-well plate) using the RNAeasy Kit and Qiacube (Qiagen, Venlo, Netherlands). cDNA was prepared using a High Capacity cDNA Kit (Life Technologies, Carlsbad, Calif.). Quantitative reverse transcription polymerase chain reaction (qRT-PCR) was done using TaqMan Gene Expression Assays on a 7500 Real Time PCR System (Life Technologies, Carlsbad, Calif.).
CD13 is present at much higher levels in RA synovial fluid compared to OA. Cultured RA and OA FLS, however, expressed similar amounts of CD13 (10). One possible explanation for this observation is that the pro-inflammatory cytokines in the RA joint could contribute to upregulation of CD13 production by FLS. Cultured RA FLS were treated with IFNγ, TNFα, or IL-17 over a time course from 0 to 72 hours. […] Data shown are a ratio of cytokine-treated FLS CD13 mRNA to untreated FLS CD13 mRNA at the same time point.

RA FLS [4] = assay: ELISA for the secretion of CD13 from RA FLS incubated with TIMPs; settings: 0.6 μg/ml, 48 hours, FLS from 3 RA patients
Procedure: To determine the role of tissue inhibitors of metalloproteinases (TIMPs) in the secretion of CD13, RA FLS (10 aliquots of 10^5, or 10^6, cells) were plated in 6-well plates in RPMI with 10% FBS. When RA FLS became 85% confluent, media was switched to RPMI containing 0.1% FBS. RA FLS were incubated with TIMP-1, TIMP-2 or both for 48 hours. ELISA was performed to determine the levels of soluble CD13 in the conditioned media. Conditioned media (100 μl/well) was added to 96-well plates (Thermo Scientific, USA) for 2 hours at room temperature. After blocking, anti-CD13 antibody, WM15, (10 μg/ml, BioLegend) was added for 2 hours at 37° C. Anti-mouse IgG HRP-linked antibody (1:1000) was added for 1 hour. After adding the TMB substrate solution (BD Biosciences) and stop solution (2N H2SO4), the optical density (OD) was measured at 450 nm by a microplate reader (BIO-TEK, USA). We used FLS from three different RA patients. Both inhibitors were used at 0.6 μg/ml. These concentrations are recommended by the manufacture to inhibit matrix metalloproteinases (MMPs).

CC(C)C[C@H](NC(=O)[C@@H](O)[C@H](N)Cc1ccccc1)C(=O)O [Bestatin, bestatin]
RA FLS migration in wound healing assay (relative wound density, ratio to untreated) (RA FLS [1]): not found to inhibit FLS migration | RA FLS cell growth (change in confluence, ratio to untreated FLS) (RA FLS [2]): significant slowing of cell growth

CNC(=O)[C@H](Cc1c[nH]c2ccccc12)NC(=O)[C@@H](CC(=O)NO)CC(C)C [GM6001]
CD13 in FLS cell lysates (change, in words) (RA FLS [3]; FLS cultures, serum-free media with protease inhibitor): No significant difference | reduction of CD13 protein found in the supernatant (RA FLS [3]; FLS cultures, serum-free media, GM6001 25 μM, CD13 ELISA): 93.62±4.78% | block of CD13 release from FLS (in words) (RA FLS [3]; protease inhibitors at established working concentrations): found to block CD13 release | CD13 in lysates of GM6001-treated cells (FLS): significantly increased | release of CD13 into the culture supernatant (in words) (FLS; serum-free media with 1 ng/ml IL-1 and 10 ng/ml TNFα): prevented the release of CD13

CC(=O)N[C@@H](CC(C)C)C(=O)N[C@@H](CC(C)C)C(=O)N[C@H](C=O)CCCNC(=N)N [Leupeptin, leupeptin]
increase in CD13 released (RA FLS [3]; FLS cultures, serum-free media, Leupeptin 10 μM, supernatant): 48.40±14.29%

CCCCC[C@H](CC(=O)NO)C(=O)N[C@H](C(=O)N1CCC[C@H]1CO)C(C)C [actinonin]
RA FLS migration in wound healing assay (relative wound density, ratio to untreated) (RA FLS [1]): significant decrease | RA FLS cell growth (change in confluence, ratio to untreated FLS) (RA FLS [2]): strongest inhibitor of cell proliferation | RA FLS cell growth (change in confluence, ratio to untreated FLS) (RA FLS [2]; listed as Actinonin): significant slowing of cell growth

aprotinin
increase in CD13 expression in FLS cell lysates (RA FLS [3]; Aprotinin 100 nM): 22.17±6.18%

recombinant human interferon-γ [IFNγ]
CD13 mRNA in RA FLS, ratio to untreated FLS (in words) (CD13 mRNA): upregulated | time of peak CD13 mRNA expression (CD13 mRNA): around 48 hours

recombinant human interleukin-17 [IL-17]
CD13 mRNA in RA FLS, ratio to untreated FLS (in words) (CD13 mRNA): upregulated | time of peak CD13 mRNA expression (CD13 mRNA): around 48 hours

recombinant human tumor necrosis factor-α [TNFα]
CD13 mRNA in RA FLS, ratio to untreated FLS (in words) (CD13 mRNA): upregulated | time of peak CD13 mRNA expression (CD13 mRNA): around 48 hours

tissue inhibitor of metalloproteinase 1 [TIMP-1]
CD13 secretion in conditioned media (OD, ELISA) (RA FLS [4]): decrease was not observed

tissue inhibitor of metalloproteinase 2 [TIMP-2]
CD13 secretion in conditioned media (OD, ELISA) (RA FLS [4]): significant decrease
